Legend:
Format in all cases: in vivo
[1] = tested on: Aphis gossypii; test: Test method 2: soil irrigation of cucumber seedlings, later inoculated with Aphis gossypii; settings: 144 h, irrigated 5 mL/seedling, inoculated after 7 days, surviving insects examined after 6 days, 25°C, read-out: control value
Method: The test compound is formulated according to the method described in Formulation Example 5, and water is added thereto to prepare a diluted solution containing the test compound at a predetermined concentration. A cucumber (Cucumis sativus) seedling (second true leaf stage) planted in a container is irrigated with the diluted solution at a rate of 5 mL/seedling. After 7 days, the leaf surface of this seedling is inoculated with about 30 Aphis gossypii (whole stage). After 6 days, the number of surviving insects is examined, and the control value is determined by the following formula. [formula] • Characters in the formula represent the following meanings. • Cb: number of test insects in a non-treated section • Cai: number of surviving insects in a non-treated section at the time of investigation • Tb: number of test insects in a treated section • Tai: number of surviving insects in a treated section at the time of investigation Herein, the non-treated section means a section that is subjected to the same operation as that of the treated section except that the test compound is not used.

[2] = tested on: diamondback moth (Plutella xylostella); test: Test method 4: sprayed cabbage foliage cut out, second instar larvae of diamondback moth released; settings: foliar, 120 h, sprayed 20 mL/seedling, five second instar larvae, after 5 days, 25°C
Method: A test compound is formed into a formulation according to the method described in Formulation Example 1, and water containing 0.03% by volume of Shindain (registered trademark) is added thereto to prepare a diluted solution containing the test compound at a predetermined concentration.
A cabbage (Brassicae oleracea) seedling (2 to 3 true leaf stage) planted in a container is sprayed with the diluted solution at a rate of 20 mL/seedling. Thereafter, the foliage portion of the seedling is cut out and placed in a container on which filter paper is laid. Thereto are released five second instar larvae of diamondback moth (Plutella xylostella). After 5 days, the number of surviving insects is counted, and the mortality is determined from the following equation. [formula]

[3] = tested on: cotton aphids (Aphis gossypii); test: Test method 1: foliar spray on cucumber seedlings inoculated with cotton aphids (formulation per Formulation Example 1); design: mortality: concentration or dose not given beside the values; settings: 120 h, sprayed 10 mL/seedling one day after inoculation, surviving insects examined after 5 days, 25°C, read-out: control value
[4] = tested on: cotton aphids (Aphis gossypii); test: Test method 11: foliar spray on cucumber seedlings inoculated with cotton aphids (formulation per Formulation Example 5); settings: 120 h, sprayed 10 mL/seedling one day after inoculation, after 5 days, 25°C, read-out: control value
[5] = tested on: diamondback moth (Plutella xylostella); test: Test method 10: sprayed cabbage seedling, third instar larvae of diamondback moth released; settings: 144 h, sprayed 20 mL/seedling, 10 third instar larvae, after 6 days, 25°C
Method: A test compound is formed into a formulation according to the method described in Formulation Example 5, and water containing 0.03% by volume of Shindain (registered trademark) is added thereto to prepare a diluted solution containing the test compound at a predetermined concentration.
A cabbage (Brassicae oleracea) seedling (3 to 4 true leaf stage) planted in a container is sprayed with the diluted solution at a rate of 20 mL/seedling. Thereafter, 10 third instar larvae of diamondback moth (Plutella xylostella) are released. After 6 days, the number of surviving insects is counted, and the mortality is determined from the following equation. [formula]

[6] = tested on: Culex pipiens pallens; test: Test method 12: last-instar larvae of Culex pipiens pallens released into diluted solution; settings: 24 h, 30 last-instar larvae, one day later, 25°C
Method: The test compound is formulated according to the method described in Formulation Example 1, and water is added thereto to prepare a diluted solution containing the test compound at a predetermined concentration. 30 last-instar larvae of Culex pipiens pallens are released into the diluted solution, and the state of the larvae of Culex pipiens is examined one day later to determine the Mortality. The mortality is calculated by the following equation. [formula]

SMILES | mortality at 1000 ppm [1] [%] | mortality at 500 ppm [2] [%] | mortality at 500 ppm [3] [%] | mortality at 50 ppm [4] [%] | mortality at 200 ppm [4] [%] | mortality at 200 ppm [5] [%] | mortality at 3.5 ppm [6] [%] | mortality [3] [%] | mortality at 50 ppm [5] [%]
CCS(=O)(=O)c1c(N(C)C(=O)c2cnn(C3CC3)c2)nc2ccc(I)cn12 [compound 64] | ≥ 90 | ≥ 80 | ≥ 90 | – | – | – | – | – | –
CCS(=O)(=O)c1c(N(C)C(=O)c2cnc(C(F)(F)F)s2)nc2ccc(C(F)(F)F)cn12 [compound 44] | ≥ 90 | ≥ 80 | ≥ 90 | ≥ 90 | ≥ 90 | ≥ 80 | > 90 | – | –
CCSc1c(N(C)C(=O)c2cnn(C(F)F)c2)nc2ccc(I)cn12 [compound 24] | – | ≥ 80 | ≥ 90 | – | ≥ 90 | – | > 90 | – | –
CCSc1c(N(C)C(=O)c2cnc(C(F)(F)F)s2)nc2cc(I)ccn12 [compound 10] | – | ≥ 80 | ≥ 90 | ≥ 90 | ≥ 90 | ≥ 80 | > 90 | – | –
CC[S+]([O-])c1c(N(C)C(=O)c2cnc(C(F)(F)F)s2)nc2ccc(Br)cn12 (stereo not drawn) [compound 41] | ≥ 90 | ≥ 80 | ≥ 90 | ≥ 90 | ≥ 90 | ≥ 80 | – | – | –
CCS(=O)(=O)c1c(N(C)C(=O)c2cnc(C(F)(F)F)s2)nc2cc(I)ccn12 [compound 46] | ≥ 90 | ≥ 80 | – | ≥ 90 | ≥ 90 | – | > 90 | ≥ 90 | –
CCSc1c(N(C)C(=O)c2cnc(C(F)(F)F)s2)nc2ccc(I)cn12 [compound 7] | ≥ 90 | ≥ 80 | ≥ 90 | ≥ 90 | ≥ 90 | ≥ 80 | > 90 | – | ≥ 80
CC[S+]([O-])c1c(N(C)C(=O)c2cnc(C(F)(F)F)s2)nc2ccc(C(F)(F)F)cn12 (stereo not drawn) [compound 43] | ≥ 90 | ≥ 80 | ≥ 90 | ≥ 90 | ≥ 90 | ≥ 80 | – | – | –
CCS(=O)(=O)c1c(N(C)C(=O)c2cc(C(F)(F)F)nn2C)nc2ccc(I)cn12 [compound 36] | – | – | – | ≥ 90 | ≥ 90 | ≥ 80 | – | – | ≥ 80
CCS(=O)(=O)c1c(N(C)C(=O)c2cn(CC(F)(F)F)nn2)nc2ccc(I)cn12 [compound 67] | ≥ 90 | – | ≥ 90 | ≥ 90 | ≥ 90 | – | > 90 | – | –
CCSc1c(N(C)C(=O)c2cn(CC(F)(F)F)nn2)nc2ccc(I)cn12 [compound 27] | – | – | ≥ 90 | – | ≥ 90 | ≥ 80 | > 90 | – | –
CCS(=O)(=O)c1c(N(C)C(=O)c2cc(Br)n(C)n2)nc2ccc(I)cn12 [compound 53] | – | ≥ 80 | ≥ 90 | ≥ 90 | ≥ 90 | – | – | – | –
CCS(=O)(=O)c1c(N(C)C(=O)c2cnc(C(F)(F)F)s2)nc2ccc(Br)cn12 [compound 42] | ≥ 90 | ≥ 80 | ≥ 90 | ≥ 90 | ≥ 90 | ≥ 80 | > 90 | – | –
CCSc1c(N(C)C(=O)c2ccc(C(F)(F)F)o2)nc2ccc(I)cn12 [compound 5] | – | ≥ 80 | ≥ 90 | ≥ 90 | ≥ 90 | – | > 90 | – | –
CCSc1c(N(C)C(=O)c2cnc(C(F)(F)F)s2)nc2cc(Br)ccn12 [compound 11] | ≥ 90 | ≥ 80 | ≥ 90 | ≥ 90 | ≥ 90 | – | > 90 | – | –
CCSc1c(N(C)C(=O)c2cc(C(F)(F)F)nn2C)nc2ccc(I)cn12 [compound 3] | – | ≥ 80 | ≥ 90 | ≥ 90 | ≥ 90 | ≥ 80 | > 90 | – | –
CCS(=O)(=O)c1c(N(C)C(=O)c2cc(OC(F)F)n(C)n2)nc2ccc(I)cn12 [compound 55] | – | – | – | – | – | – | > 90 | – | –
CCSc1c(N(C)C(=O)c2cnc(C(F)(F)F)s2)nc2ccc(Br)cn12 [compound 8] | – | ≥ 80 | ≥ 90 | ≥ 90 | ≥ 90 | – | > 90 | – | –
CCSc1c(N(C)C(=O)c2cnc(C(F)(F)F)s2)nc2ccc(C(F)(F)F)cn12 [compound 9] | – | ≥ 80 | ≥ 90 | ≥ 90 | ≥ 90 | – | > 90 | – | –
CCS(=O)(=O)c1c(N(C)C(=O)c2ccn(C3CC3)n2)nc2ccc(I)cn12 [compound 57] | – | ≥ 80 | ≥ 90 | – | ≥ 90 | – | > 90 | – | –
CCS(=O)(=O)c1c(N(C)C(=O)c2cnn(C(F)F)c2)nc2ccc(I)cn12 [compound 63] | – | ≥ 80 | ≥ 90 | – | – | – | – | – | –
CCS(=O)(=O)c1c(N(C)C(=O)c2cnn(C(F)(F)F)c2)nc2ccc(I)cn12 [compound 61] | – | ≥ 80 | ≥ 90 | – | – | – | – | – | –
CC[S+]([O-])c1c(N(C)C(=O)c2cnn(C(F)(F)F)c2)nc2ccc(I)cn12 (stereo not drawn) [compound 60] | – | ≥ 80 | ≥ 90 | – | – | – | – | – | –
CC[S+]([O-])c1c(N(C)C(=O)c2cnc(C(F)(F)F)s2)nc2cc(Br)ccn12 (stereo not drawn) [compound 47] | ≥ 90 | ≥ 80 | ≥ 90 | ≥ 90 | ≥ 90 | ≥ 80 | – | – | –
CCS(=O)(=O)c1c(N(C)C(=O)c2nc(C(F)(F)F)cs2)nc2ccc(I)cn12 [compound 50] | – | ≥ 80 | – | – | – | – | – | – | –
CCSc1c(N(C)C(=O)c2nc(C(F)(F)F)cs2)nc2ccc(I)cn12 [compound 13] | – | ≥ 80 | ≥ 90 | – | ≥ 90 | – | > 90 | – | –
CCS(=O)(=O)c1c(N(C)C(=O)c2ccc(C(F)(F)F)o2)nc2ccc(I)cn12 [compound 39] | ≥ 90 | ≥ 80 | ≥ 90 | ≥ 90 | ≥ 90 | – | > 90 | – | –
CCSc1c(N(C)C(=O)c2ccn(C(F)F)n2)nc2ccc(I)cn12 [compound 19] | – | – | ≥ 90 | ≥ 90 | ≥ 90 | – | > 90 | – | –

From EP4596547A1, “HETEROCYCLIC COMPOUND AND HARMFUL ARTHROPOD-CONTROLLING COMPOSITION CONTAINING SAME” (priority 2022, dated 2024)
